Assay [1] concerns the target T1, hENT1 (Homo sapiens, UniProt Q99808).
T1 sequence (Q99808 1-456): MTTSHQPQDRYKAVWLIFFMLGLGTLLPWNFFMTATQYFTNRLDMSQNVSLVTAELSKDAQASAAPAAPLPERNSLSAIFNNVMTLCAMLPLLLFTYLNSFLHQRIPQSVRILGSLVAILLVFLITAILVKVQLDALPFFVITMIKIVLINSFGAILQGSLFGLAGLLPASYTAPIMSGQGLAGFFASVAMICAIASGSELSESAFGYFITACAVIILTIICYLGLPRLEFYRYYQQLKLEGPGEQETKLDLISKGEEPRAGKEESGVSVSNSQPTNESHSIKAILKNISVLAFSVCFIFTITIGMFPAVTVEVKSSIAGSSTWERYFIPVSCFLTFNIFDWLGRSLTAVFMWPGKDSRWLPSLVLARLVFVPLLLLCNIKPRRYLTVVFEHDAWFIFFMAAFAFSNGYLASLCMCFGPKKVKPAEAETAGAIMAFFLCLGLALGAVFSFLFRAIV
Type of assay: cell-based. The note with it: PK15-ENT1 cells, combined with rapadocin.

The target of assay [2] is T1, hENT1. The assay can be described thus: Affinity pulldown with biotinylated rapadocin, red blood cell membrane extract. The note with it: competitor. Type of assay: binding.
The target of assay [3] is hENT1 (Homo sapiens, UniProt P62942+Q99808). Kind of assay: GST-FKBP12 affinity pulldown, red blood cell membrane extract. It counts as binding. The note with it: competitor.
Chain of hENT1 (Homo sapiens, UniProt P62942+Q99808) (P62942 whole entry, one chain of several): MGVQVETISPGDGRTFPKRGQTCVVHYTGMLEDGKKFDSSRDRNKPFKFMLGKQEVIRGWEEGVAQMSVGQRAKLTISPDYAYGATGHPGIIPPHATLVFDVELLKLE
The subject of assay [4] is HUVEC. The assay can be described thus: Adenosine. Type of assay: cell-based, human.
The test system of assay [5] is Id1-Luc luciferase reporter. Kind of assay: BMP reporter gene assay. The note with it: Jurkat T cells, 10 µM, 18 h. It counts as cell-based, human. In general terms: A reporter such as luciferase makes a cellular process visible.

`COc1ccc(-c2ccc3c(N4CCOC[C@@H]4C)nc(N4CCOC[C@@H]4C)nc3n2)cc1CO` [AZD8055]: the “antagonism of rapadocin inhibition of hENT1-mediated thymidine uptake” value in assay [1] is “did not antagonize”.

`C=CC[C@@H]1/C=C(\C)C[C@H](C)C[C@H](OC)[C@H]2O[C@@](O)(C(=O)C(=O)N3CCCC[C@H]3C(=O)O[C@H](/C(C)=C/[C@@H]3CC[C@@H](O)[C@H](OC)C3)[C@H](C)[C@@H](O)CC1=O)[C@H](C)C[C@@H]2OC` [FK506]: the “competition of hENT1 binding of the biotin-rapadocin probe” value in assay [2] is given as “not appreciably”. The “competition of GST-FKBP12-rapadocin association with hENT1” value in assay [3] is “sensitive to competition”. The “IC50, nucleoside uptake” value in assay [4] was “low micromolar range”. Further, the “antagonism of rapadocin inhibition of hENT1-mediated thymidine uptake” value in assay [1] was “antagonize”. Moreover, the “activation of the Id1-Luc reporter gene” value in assay [5] is recorded as “activated the Id1-Luc reporter gene”.

Take `CO[C@H]1C[C@@H]2CC[C@@H](C)[C@@](O)(O2)C(=O)C(=O)N2CCCC[C@H]2C(=O)O[C@H]([C@H](C)C[C@@H]2CC[C@@H](O)[C@H](OC)C2)CC(=O)[C@H](C)/C=C(\C)[C@@H](O)[C@@H](OC)C(=O)[C@H](C)C[C@H](C)/C=C/C=C/C=C/1C` [rapamycin]: in assay [2], the “competition of hENT1 binding of the biotin-rapadocin probe” value is “not appreciably”. Moreover, the “competition of GST-FKBP12-rapadocin association with hENT1” value in assay [3] is on record as “sensitive to competition”. Also, the “IC50, nucleoside uptake” value in assay [4] is “low micromolar range”. In addition, the “antagonism of rapadocin inhibition of hENT1-mediated thymidine uptake” value in assay [1] is given as “antagonize”. The “activation of the Id1-Luc reporter gene” value in assay [5] is reported as “activated the Id1-Luc reporter gene”.

Source of the values: article PMC6435255 (Nature chemistry, 2018).
